Assay results from patent US11666589B2, “Pivarubicin and benzarubicin compositions” (Paradox Pharmaceuticals, Inc., priority 2020, dated 2023).

What was measured:
[1] = test system: J774.2 murine macrophage-like cells; assay: Drug biotransformation analysis (HPLC of intracellular drug) in J774.2 cells; format: in vitro ADME
Description: Intracellular drug was extracted and analyzed by fluorescence HPLC as described previously.

PKCd = target: T1, PKCd (Mus musculus, UniProt P28867); assay: PKCd translocation (cell fractionation, immunoblot); format: cell-based, murine; details: within 4 hours of treatment with 5 μM; 32D.3 cells
T1 construct: endogenous in cells; host or cells: 32D.3 murine myeloid cells
T1 sequence (P28867 whole entry): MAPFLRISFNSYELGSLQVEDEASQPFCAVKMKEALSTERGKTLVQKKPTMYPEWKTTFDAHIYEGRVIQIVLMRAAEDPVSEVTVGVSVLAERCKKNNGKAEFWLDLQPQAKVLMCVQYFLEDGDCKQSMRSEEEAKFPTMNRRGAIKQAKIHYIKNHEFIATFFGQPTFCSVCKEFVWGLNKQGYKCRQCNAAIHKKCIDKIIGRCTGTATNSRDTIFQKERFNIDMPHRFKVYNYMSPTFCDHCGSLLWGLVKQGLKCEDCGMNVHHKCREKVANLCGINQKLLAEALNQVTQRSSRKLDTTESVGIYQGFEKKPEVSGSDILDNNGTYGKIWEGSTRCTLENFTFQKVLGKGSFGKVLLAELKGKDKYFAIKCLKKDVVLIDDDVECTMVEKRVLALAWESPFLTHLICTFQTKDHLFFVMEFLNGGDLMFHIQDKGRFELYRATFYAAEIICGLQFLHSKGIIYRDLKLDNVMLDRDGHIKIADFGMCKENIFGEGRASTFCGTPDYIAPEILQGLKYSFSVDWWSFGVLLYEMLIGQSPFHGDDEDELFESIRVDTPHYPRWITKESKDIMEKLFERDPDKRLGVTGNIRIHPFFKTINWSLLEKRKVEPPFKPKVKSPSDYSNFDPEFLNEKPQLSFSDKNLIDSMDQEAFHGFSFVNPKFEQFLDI
Description: Inhibition of PKCd activity also selectively impedes pivarubicin cytotoxicity.

Q: How did the “% Parent Compound” value ([1]; J774.2, 1 hr, 1 μM drug, 37° C.) turn out when `COc1cccc2c1C(=O)c1c(O)c3c(c(O)c1C2=O)C[C@@](O)(C(=O)COC(=O)C(C)(C)C)C[C@@H]3O[C@H]1C[C@H](NCc2ccccc2)[C@H](O)[C@H](C)O1` [Pivarubicin, N-Benzyladriamycin-14-pivalate] was run?
A: The value was 90%.

Q: And the “% Parent Compound” value ([1]; J774.2, 8 hr (1 hr drug + 7 hours drug-free medium))?
A: Its value is 90%.

Q: What about the PKCd translocation (PKCd) of the same molecule?
A: Its PKCd translocation is “translocates from the cytosolic to the membrane fraction”.
